Assays:
liver fibrosis = assay: Liver disease model mice (carbon tetrachloride-induced liver fibrosis); format: in vivo, C57BL/6 male mice; details: glycyrrhizin 150 mg/kg, IC-2 10.6 or 21.2 mg/kg intraperitoneally 3 times a week for 4 weeks, vs vehicle
Description: First, 7-week-old C57BL/6 male mice (Japan SLC, Shizuoka, Japan) were subject to 1-week preparatory rearing. Among them, healthy mice were used. The mice were housed in an animal cage at a room temperature of 22±1° C. and a humidity of 50±5% throughout the preparatory rearing and experimental period and were given ad libitum access to food and water.
A microsyringe (ITO CORPORATION, Shizuoka, Japan) was used to intraperitoneally administer carbon tetrachloride (CCl4: Wako Pure Chemical Industries, Ltd., Osaka, Japan) at 0.2 ml/kg, 3 times a week, for 4, 6, or 8 weeks. Carbon tetrachloride was dissolved into cone oil (Wako Pure Chemical Industries, Ltd.) at a concentration of 10%. The resulting solution was used. After this carbon tetrachloride solution was administered for 4 weeks, the mice were divided into a vehicle administration group, a glycyrrhizin administration group, an ICG-001 administration group, and an IC-2 administration group. Then, a microsyringe was used to intraperitoneally administer, 3 times a week for 4 weeks, carbon tetrachloride and a drug solution prepared in accordance with the following process. Note that the carbon tetrachloride and the drug solution were alternately administered with one-day interval.
Glycyrrhizin (TOKYO CHEMICAL INDUSTRY CO., LTD., Tokyo, Japan) was dissolved in physiological saline. The solution was prepared at a concentration of 30 mg/ml while the pH was adjusted to 7.0 with 4 M NaOH liquid. IC-2 and ICG-001 (AdooQ BioScience, California, USA) were each dissolved in a WellSolve (Celeste Corporation, Tokyo, Japan) at a concentration of 40 mg/ml and 10 mg/ml, respectively. Next, the mixture was heated for 10 min in a hot water bath at 60° C. and was then completely dissolved. A 9-fold volume of physiological saline was added to the WellSolve solution in which the above drugs had each been dissolved. […] Note that an IC-2 dosage was determined on the basis of an effective concentration in vitro. […]

cancer stem cells = details: Fbxw7-deficient model mice; cited from earlier work

Compound	content of hydroxyproline (liver fibrosis)	killing of cancer stem cells (cancer stem cells)
CC1(C)[C@@H](O[C@H]2O[C@H](C(=O)O)[C@@H](O)[C@H](O)[C@H]2O[C@@H]2O[C@H](C(=O)O)[C@@H](O)[C@H](O)[C@H]2O)CC[C@]2(C)[C@H]3C(=O)C=C4[C@@H]5C[C@@](C)(C(=O)O)CC[C@]5(C)CC[C@@]4(C)[C@]3(C)CC[C@@H]12 [glycyrrhizin, Glycyrrhizin, reference compound]	reduced content of hydroxyproline	–
Cc1ccc(NC(=O)c2ccc(CN3CCN(C)CC3)cc2)cc1Nc1nccc(-c2cccnc2)n1 [imatinib]	–	cancer stem cells were killed
